Seven compounds from patent US12516060B2, “Solid freebase forms of 5-chloro-2-(4-((2-hydroxy-2-methylpropyl)amino)pyrido[3,4-d]pyridazin-1-yl)phenol for inhibiting NLRP3 and uses thereof” (Ventus Therapeutics U.S., Inc., priority 2023, dated 2026) can be followed below.

Common to all, as to format: physicochemical
Series [1] is described as follows: Dynamic Vapor Sorption (DVS). To be noted: for water uptake, weight gain between 5-95% relative humidity (RH) / hygroscopicity: DVS; for DVS mass change 5-95% RH (wt. %) / water uptake, weight gain between 5-95% relative humidity (RH): 5-95% RH; for hygroscopicity: all adsorbed water lost during the drying cycle; for XRPD pre- and post-DVS: form stability after DVS cycle. The method, then: DVS was performed using TA Instruments Q5000SA. The sample (5-15 mg) was loaded into a metallic quartz sample pan, suspended from a microbalance, and exposed to a humidified stream of nitrogen gas. Weight changes were relative to a matching empty reference pan opposite the sample, suspended from the microbalance. The sample was held for a minimum of 10 min at each level and only progressed to the next humidity level if there was <0.002% change in weight between measurements (interval: 5 s) or 45 min had elapsed (for 5-65% RH) or 2 h had elapsed (for 80 and 95% RH). Mass change by DVS is related to hygroscopicity.

Series [2] can be described thus: Solid form stability studies, 75% RH at 40° C. for one week (XRPD and HPLC). To be noted: for XRPD (tested material): 75% ± 5% RH at 40° C. ± 2° C. for 1 week; for Purity % a/a (tested material) / Purity % a/a (input material): HPLC; for Purity % a/a (tested material): after 75% ± 5% RH at 40° C. ± 2° C. for 1 week; for Purity % a/a (input material): before stability test. How it is done: Solid form stability studies were performed on Form I-V freebase forms by weighing approximately 10-15 mg of the crystalline material into 4 mL vials and covering with a lab grade task wipe (Kimwipe). These vials were placed inside a stability chamber set at 75%±5% relative humidity (RH) at 40° C.±2° C., where they were left for one week (7 full days). The retrieved material was then analyzed by XRPD and HPLC. In each case, the initial material and tested material were identical by XRPD, with the exception of Form I freebase, where an extra peak at 5.8 °2θ in the initial material was absent after the stability test. HPLC purities of the tested material were essentially unchanged from those of the initial material.

Series [3] in a line: First set of competitive slurry experiments (Form I-IV freebases). To be noted: for relative stability of Forms I-IV freebases: five solvent systems; for evidence of form by XRPD after 2 days: slurries seeded with Forms I-IV, RT or 50° C., all experiments. The method, then: Competitive slurry experiments were carried out with Form I-IV freebases at two temperatures, room temperature (RT) and 50° C., in five solvents/solvent systems. First, saturated solutions of Form I freebase (Example 2) were prepared at each temperature in each solvent system. To make the saturated solutions, Form I freebase was added to 2 mL of solvent already stirring at the desired temperature, either room temperature (RT) or at 50° C. Once a thin slurry was observed, the samples were left to equilibrate overnight. After stirring overnight, the stir bars were removed to allow the solids to settle, and the supernatant was pipetted into clean 4 mL vials containing a 10 mm stir bar.
The supernatant was then left to stir for an additional 15 min prior to adding seeds (approximately 5 mg per form, pre-weighed) of the following patterns: Form I freebase (Example 2), Form II freebase (Example 3), Form III freebase (Example 4) and Form IV freebase (Example 5). Samples of the slurries were plated for XRPD analysis immediately after seeding. The slurries were then sampled again after 2 days and 7 days at the respective temperatures.

A short description of series [4]: Thermal treatment of solid forms. To be noted: held 10 min; for XRPD after thermal treatment to 210° C.: 30 to 210° C. at 10° C./min, cooled to 30° C. The method, then: Thermal treatment of the Amorphous freebase was carried out. 10 mg of amorphous Compound 1 freebase was weighed into a 100 μL DSC pan. The pan was heated at a rate of 10° C./min to 200° C., held at 200° C. for 10 min, then cooled at a rate of 20° C./min to 25° C. Data not shown. The resulting solids were brittle and dark-orange. The solids sampled for XRPD, NMR, and HPLC purity analysis indicated decomposition of Compound 1 freebase rather than maintaining the amorphous state or conversion to a crystalline form.
Thermal treatment of Form III freebase to 210° C. was carried out. Approximately 5 mg of Form III freebase was weighed into a DSC pan. The sample was heated from 30° C. to 210° C. at a rate of 10° C./min, held at 210° C. for 10 min, then cooled from 210° C. to 30° C. at a rate of 20° C./min. […] Data not shown. The peaks at 16.2 °2θ and 20.1 °2θ may have been due to trace amounts of Form II freebase (Example 3).
Thermal treatment of Form IV freebase to 210° C. was carried out. Approximately 5 mg of Form IV freebase was weighed into a DSC pan. The sample was heated from 30° C. to 210° C. at a rate of 10° C./min, held at 210° C. for 10 min, then cooled from 210° C. to 30° C. at a rate of 20° C./min.

Series [5] in a line: Solvent addition to Amorphous freebase.
Series [6] in a line: Dry and solvent-drop milling of Form I freebase. To be noted: 16 s at 3500 rpm. The method, then: Dry and solvent-drop milling on pure-phase Form I freebase was performed using a ball mill with ¼ inch stainless steel ball as milling media. Approximately 30-35 mg of Form I freebase was weighed into a milling capsule and 1 vol. of solvent (solvent drop) was added. The milling was carried out for 16 s at 3500 rpm. Overall, no new patterns were identified from dry and solvent-drop milling experiments. […] Loss of crystallinity was most evident in the dry-milled sample, though Form I freebase pattern was still readily distinguished.

Series [7] can be described thus: Drying of Patterns overnight at 50° C. To be noted: XRPD. The method, then: For fast-cooling crystallization, Form I freebase was obtained from methanol (MeOH), MeOH:water (9:1 vol.), ethanol (EtOH):water (9:1 vol.), ethyl acetate (EtOAc):N,N-dimethylformamide (DMF) (9:1 vol.), and EtOH:tetrahydrofuran (THF) (3:7 vol.). Form II freebase (Example 3) was obtained from THF, and from acetonitrile:dimethylformamide (DMF) (9:1 vol.) as a mixture with Form I freebase. Pattern C (Example 7) was obtained from isopropanol (IPA):water (9:1 vol.) at −20° C.
Pattern B (Example 7) was obtained from dimethylacetamide (DMAc)/methyl isobutyl ketone (MIBK) after standing overnight at −20° C. […] A mixture of Form III freebase (Example 4) (major) and Form I freebase (minor) was obtained from the direct addition of water into dimethylsulfoxide (DMSO). The ratio of the two patterns was unchanged after drying in vacuo at 50° C. for 4 h. Reverse addition (DMSO/water) gave Form III freebase (Example 4) alone, with no evidence of Form I freebase. Reverse antisolvent addition (dimethylacetamide (DMAc)/water or N-methylpyrrolidone (NMP)/water) gave Form IV freebase (Example 5).
Pattern B freebase was obtained from dimethylacetamide (DMAc)/methyl isobutyl ketone (MIBK) after standing overnight at −20° C. See Example 2, Table 2B. […] The XRPD of Pattern B freebase, taken before drying, is provided in FIG. 7C, and the corresponding signal list is provided in Table 7B.
Pattern C freebase was obtained from isopropanol (IPA):water (9:1 vol.) at −20° C.

Each structure is given as a SMILES string.

Take `CC(C)(O)CNc1nnc(-c2ccc(Cl)cc2O)c2ccncc12` [Form II freebase, 5-chloro-2-(4-((2-hydroxy-2-methylpropyl)amino)pyrido[3,4-d]pyridazin-1-yl)phenol]: in series [1], the “DVS mass change 5-95% RH (wt. %)” value is 1.03 wt. %; the “water uptake, weight gain between 5-95% relative humidity (RH)” value was “about 1.03%”; the hygroscopicity result was “slightly, hygroscopic”; the “XRPD pre- and post-DVS” value was “remained unchanged”. Further, in series [2], the “XRPD (tested material)” value is “Form II”, the “Purity % a/a (tested material)” value came to 98.12 % a/a and the “Purity % a/a (input material)” value amounted to 98.12 % a/a. Also, the “form favored after 7 days” value in series [3] (RT and 50° C., 7 days) is reported as “favored in most solvent systems”. In addition, the “relative stability of Forms I-IV freebases” value in series [3] (RT and 50° C.) is “more stable”. The “form favored, Form II vs Form I” value in series [3] (overall conclusion of first set) is listed as “favored over Form I freebase in all solvent systems except acetone:water (7:3 vol.)”.

Turning to `CC(C)(O)CNc1nnc(-c2ccc(Cl)cc2O)c2ccncc12` [Amorphous freebase, 5-chloro-2-(4-((2-hydroxy-2-methylpropyl)amino)pyrido[3,4-d]pyridazin-1-yl)phenol], in series [4] (heated 10° C./min to 200° C., cooled to 25° C.), the “XRPD, NMR, and HPLC purity analysis after thermal treatment” value was “decomposition”. Besides, the “form conversion upon addition of solvent” value in series [5] (5 vol. acetone) was “Rapid conversion of the Amorphous freebase to Form I freebase”; in series [5] (toluene), “rapid conversion of the Amorphous freebase to Form II freebase”.

With `CC(C)(O)CNc1nnc(-c2ccc(Cl)cc2O)c2ccncc12` [Form I freebase, 5-chloro-2-(4-((2-hydroxy-2-methylpropyl)amino)pyrido[3,4-d]pyridazin-1-yl)phenol], in series [1], the “DVS mass change 5-95% RH (wt. %)” value was 0.5 wt. %; the “water uptake, weight gain between 5-95% relative humidity (RH)” value stood at 0.5%; the hygroscopicity entry is reported as “slightly, hygroscopic”; the “XRPD pre- and post-DVS” value was “remain unchanged”. For the same compound, in series [2], the “XRPD (tested material)” value is given as “Form I”, the “Purity % a/a (tested material)” value is recorded as 97.94 % a/a and the “Purity % a/a (input material)” value worked out at 98.06 % a/a. The XRPD after milling result in series [6] (None (dry)) is reported as “Form I”. Also, in series [6] (ball mill), the “XRPD after dry and solvent-drop milling (overall)” value is given as “remained largely unchanged”. Besides, the XRPD after milling entry in series [6] (solvent drop 1 vol. Acetone) was “Form I”. For the same compound, in series [6] (solvent drop 1 vol. Isopropanol:water (9:1 vol.)), the XRPD after milling result is “Form I”. For the same compound, the XRPD after milling entry in series [6] (solvent drop 1 vol. Methanol (MeOH)) is on record as “Form I”. Further, the XRPD after milling entry in series [6] (solvent drop 1 vol. Tetrahydrofuran (THF)) was “Form I”. Moreover, the XRPD after milling result in series [6] (solvent drop 1 vol. acetonitrile:dimethylformamide (8:2 vol.)) is given as “Form I”. For the same compound, in series [3] (RT and 50° C.), the “relative stability of Forms I-IV freebases” value is “more stable”.

For the compound `CC(C)(O)CNc1nnc(-c2ccc(Cl)cc2O)c2ccncc12` [Pattern B freebase, 5-chloro-2-(4-((2-hydroxy-2-methylpropyl)amino)pyrido[3,4-d]pyridazin-1-yl)phenol], the “form after drying overnight at 50° C.” value in series [7] and in series [7] (listed as Pattern B) was “conversion to Form I freebase” in each case.

As to `CC(C)(O)CNc1nnc(-c2ccc(Cl)cc2O)c2ccncc12` [Pattern C freebase, 5-chloro-2-(4-((2-hydroxy-2-methylpropyl)amino)pyrido[3,4-d]pyridazin-1-yl)phenol], the entries for the “form after drying overnight at 50° C.” value in series [7] and in series [7] (listed as Pattern C) were “converted to the low-crystalline version of Form I freebase (Pattern A freebase)” and “converted to Pattern A”, respectively.

Take `CC(C)(O)CNc1nnc(-c2ccc(Cl)cc2O)c2ccncc12` [Form IV freebase, 5-chloro-2-(4-((2-hydroxy-2-methylpropyl)amino)pyrido[3,4-d]pyridazin-1-yl)phenol]: in series [1], the “DVS mass change 5-95% RH (wt. %)” value is 1.59 wt. %; the “water uptake, weight gain between 5-95% relative humidity (RH)” value was “about 1.59%”; the hygroscopicity entry was “slightly, hygroscopic”; the “XRPD pre- and post-DVS” value is “remained unchanged”. For the same compound, the “XRPD after thermal treatment to 210° C.” value in series [4] is recorded as “conversion to Form I freebase”. Also, in series [2], the “XRPD (tested material)” value was “Form IV”, the “Purity % a/a (tested material)” value is 98.53 % a/a and the “Purity % a/a (input material)” value came to 99.48 % a/a. In addition, in series [3] (RT and 50° C.), the “relative stability of Forms I-IV freebases” value is “converted rapidly”. The “evidence of form by XRPD after 2 days” value in series [3] was “no evidence”.

For `CC(C)(O)CNc1nnc(-c2ccc(Cl)cc2O)c2ccncc12` [Form III freebase, 5-chloro-2-(4-((2-hydroxy-2-methylpropyl)amino)pyrido[3,4-d]pyridazin-1-yl)phenol], in series [1], the “DVS mass change 5-95% RH (wt. %)” value worked out at 0.24 wt. %; the “water uptake, weight gain between 5-95% relative humidity (RH)” value is “about 0.24%”; the hygroscopicity result is “slightly, hygroscopic”; the “XRPD pre- and post-DVS” value was “remained unchanged”. The “XRPD after thermal treatment to 210° C.” value in series [4] was “conversion to Form I freebase”. In series [2], the “XRPD (tested material)” value is on record as “Form III”, the “Purity % a/a (tested material)” value was found to be 99.60 % a/a and the “Purity % a/a (input material)” value amounted to 99.54 % a/a. Besides, the “relative stability of Forms I-IV freebases” value in series [3] (RT and 50° C.) is listed as “converted rapidly”. Also, the “evidence of form by XRPD after 2 days” value in series [3] was “no evidence”.
